One data set is described as follows: Nephelometric solubility. The class given is physicochemical. The note with it: DMEM + 10 % FCS, plasma or biological fluid, kinetic from dmso stock, maximal solubility in DMEM + 10 % FCS. The protocol: Solubility of Scaff10 derivatives was assessed nephelometrically. Scaff10 derivatives are moderately to poorly soluble in aqueous solutions due to their large number of aromatic rings having lipophilic character. Details about NMR, LC/MS and HPLC characterization steps are given in the Supplemental Information.
Suppl. Tab. 3: Overview of all 55 Scaff10 derivatives.Structures labeld with 1 were commercially obtained. MW = molecular weight. logP = calculated partition coefficient (using […]
Solubility was assessed nephelometrically in DMEM + 10 % FCS + Scaff10 derivative with either 0.3 or 2 % DMSO
final concentration; values in µM indicate maximal solubility of the compound under the respective condition. Yield in % indicates total yield of the last step of chemical synthesis
for each of Scaff10 derivatives. n.d. = not determined. n.i. = not indicated.
Scaff10 MW Number of exp. 2 % DMSO 0.3 % DMSO Scaff10 Yield
Structure log P Disruption of the PPI IC50 [µM]
derivative [g/mol] in dupl. [µM] [µM] class [%]

Data set [1] deals with T1, interaction of AKAP-Lbc/DHPH and RhoA (Homo sapiens, UniProt P61586).
T1 construct: His6-AKAP-Lbc/DHPH (aa 1972–2342 of human AKAP-Lbc; NP_006729.4); made in house
T1 sequence (P61586 whole entry, the tested form may be a part): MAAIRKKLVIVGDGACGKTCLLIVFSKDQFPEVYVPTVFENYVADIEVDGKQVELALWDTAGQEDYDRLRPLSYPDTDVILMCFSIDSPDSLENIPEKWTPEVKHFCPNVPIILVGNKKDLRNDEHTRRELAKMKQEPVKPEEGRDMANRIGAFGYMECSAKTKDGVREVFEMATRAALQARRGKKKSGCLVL
The experiment in a line: Homogeneous time-resolved fluorescence (HTRF) assay. The class given is binding. The text has this:
Fig 2 The small molecule Scaff10-8 inhibits the interaction of the DH domain of AKAP-Lbc and RhoA. (A). Principle of homogenous time-resolved fluorescence (HTRF) assay. Recombinant His-AKAP-Lbc/DHPH and GST-RhoA were generated. The tags are recognized by specific antibodies coupled to fluorescent dyes. When the two proteins interact, donor and acceptor dyes of the antibodies are in close proximity, energy transfer occurs upon excitation at 320 nm and a FRET signal is detected (665 nm). If a compound disrupts the interaction of the DHPH domain and RhoA, the proximity of the fluorescent moieties remains insufficient for a FRET signal to occur. […] As expected, excess untagged Rho decreases the binding between GST-RhoA and His-AKAP-Lbc/DHPH in a dose-dependent manner (lower left panel). […] (C) The influence of Scaff10-8 on the interaction of RhoA with the recombinant DH domain of AKAP-Lbc in the absence of the PH domain was determined by Alpha screen. […] The IC50 value is indicated.
The assay was essentially carried out as described. Scaff10 derivatives were added to His6-AKAP-Lbc/DHPH protein (250 nM final concentration) in HTRF buffer (PBS; 4 mM MgCl2; 0.05% Tween 20) in 384 well plates (Proxiplate-384 Plus, white, #6008289; Perkin Elmer LAS, Rodgau, Germany). Concentrations of Scaff10 derivatives ranged between 1.56–200 μM (2% DMSO final concentration); HTRF buffer with 2% DMSO served as a control. GST-RhoA (30 nM final concentration) in HTRF buffer and anti-GST antibody coupled to terbium (donor) and anti-His6-tag antibody coupled to XL665 (acceptor) were added to all wells (final antibody concentration: 2 μg/ml). After 1 h incubation at room temperature in the dark, FRET signals were recorded at 620 and 665 nm using a Genios Pro plate reader (Tecan Austria GmbH, Grödig, AT) and the ratios of […] to 620 nm were calculated. Wells containing no compound were set to 100% interaction of AKAP-Lbc/DHPH with RhoA, wells containing GST-RhoA only (without His6-AKAP-Lbc/DHPH) were set to 0% interaction. To exclude any interference of the tags and/or antibodies with Scaff10 derivatives, a His6-GST fusion protein replaced the two tagged proteins in a control assay. Wells containing His6-GST fusion protein were set to 100% interaction of His6-GST, wells containing no fusion protein were set to 0% interaction.
(In general: In TR-FRET formats the signal depends on donor and acceptor labels being close together.)

Data set [2] deals with AQP2 localization in MCD4 cells. The experiment in a line: Immunofluorescence microscopy of AQP2 in MCD4 cells. Type of data set: cell-based, mouse. Particulars: 30 μM.
For data set [3], the target named is T2, interaction of the DH domain of AKAP-Lbc and RhoA (Homo sapiens, UniProt P61586).
T2 construct: The proteins used were N-terminally His6-tagged AKAP-Lbc-DH domain
T2 sequence (P61586 whole entry, the tested form may be a part): as above
The experiment in a line: Alpha screen assay. Type of data set: binding. The protocol: Assays were performed according to the manufacturer’s protocol (PerkinElmer) with minor modifications. All reagents were diluted in buffer containing 25 mM Hepes, pH 7.4, 100 mM NaCl, 0.1% bovine serum albumin, 0.05% CHAPS and 50 μM GDP and allowed to equilibrate to room temperature before addition to plates. […] The proteins used were N-terminally His6-tagged AKAP-Lbc-DH domain and C-terminally biotinylated RhoA. […] 8 μL of assay buffer containing donor and acceptor beads at 1:400 dilution was then added, the plate was incubated in the dark for 60 min and then read on a PheraStar FS plate reader (BMG Labtech, Germany) using an AlphaScreen^TM 680 excitation/570 emission filter set.
11.6 μL of a solution containing 100 nM RhoA and 200 nM AKAP13 in assay buffer was added and incubated with the compounds for 30 min at RT in foil-sealed plates. 8 μL of assay buffer containing donor and acceptor beads at 1:400 dilution was added. The plate was incubated in the dark for 60 min and then read on a PheraStar FS plate reader.

The mark [4] stands for this setting: 0.3 % DMSO final, read-out: Solubility 0.3 % DMSO.
The mark [5] stands for this setting: 2 % DMSO final, read-out: Solubility 2 % DMSO.

“Also recorded” adds a separate entry of the source. Like-named read-outs stand apart in the source and are kept apart here.

As to `COc1ccc(-c2coc3cc4oc(=O)c(C)c(C)c4cc23)cc1` [Scaff10, 3-(4-Methoxyphenyl)-5,6-dimethyl-furo[3,2-g]chromen-7-one], the solubility in “Nephelometric solubility” (setting [4]) is 75 µM; in the data set “Nephelometric solubility” (setting [5]), 85 µM. In addition, the “inhibitory effect on the AKAP-Lbc/DHPH-RhoA interaction” value in data set [1] (HTRF; result in words) is “no inhibitory effect”. Further, the IC50 in data set [1] (read-out: IC50 ± SEM; Table 1; HTRF; '-' = no IC50, inactive (n.d. is used separately in S3 Table)) is above 200 µM.

Take `CCOC(=O)CCc1c(C)c2ccc(OCC(=O)c3ccc(OC)cc3)cc2oc1=O` [Scaff10-7, Ethyl 3-[7-[2-(4-methoxyphenyl)-2-oxo-ethoxy]-4-methyl-2-oxo-chromen-3-yl]propanoate]: the solubility was 40 µM in “Nephelometric solubility” (setting [4]) and 70 µM in “Nephelometric solubility” (setting [5]). The “inhibitory effect on the AKAP-Lbc/DHPH-RhoA interaction” value in data set [1] (HTRF; result in words) is listed as “did not interfere; also recorded: without inhibitory effects”. Moreover, the half-inhibitory concentration (IC50) in data set [1] (Table 1; HTRF; '-' = no IC50, inactive (n.d. is used separately in S3 Table); read-out: IC50 ± SEM) is above 200 µM. Further, the “localization of AQP2 in MCD4 cells” value in data set [2] was “did not affect the location of AQP2”. Further, the “inhibitory effect in Alpha screen” value in data set [3] (result in words) is “without inhibitory effects”.

With `COc1ccc(-c2coc3cc4oc(=O)c(CCC(=O)O)c(C)c4cc23)cc1` [Scaff10-8, 3-[3-(4-Methoxyphenyl)-5-methyl-7-oxo-furo[3,2-g]chromen-6-yl] propanoic acid], the figures for the solubility in “Nephelometric solubility” (setting [4]) and in the data set “Nephelometric solubility” (setting [5]) were 30 µM and 50 µM, respectively. Besides, the IC50 was 34.1 ± 1.7 µM in data set [1] (IC50 ± SEM, Table 1; HTRF; '-' = no IC50, inactive (n.d. is used separately in S3 Table)) and 42 µM in data set [3]. Moreover, the “localization of AQP2 in MCD4 cells” value in data set [2] is given as “induced cAMP-independently the translocation of AQP2 to the plasma membrane”.

A word on the solubility: it is the concentration that dissolves in the medium under given conditions. As usually defined, the IC50 is the midpoint of a concentration-inhibition curve.

The values above are taken from publication PMC5786306, “An AKAP-Lbc-RhoA interaction inhibitor promotes the translocation of aquaporin-2 to the plasma membrane of renal collecting duct principal cells” (PLoS ONE, 2018).
